Measurements as given in publication PMC9083330, “An Efficient Evaluation System Accelerates α-Helical Antimicrobial Peptide Discovery and Its Application to Global Human Genome Mining” (Frontiers in Microbiology, 2022).
Values after ≈ are worked out from the molar mass of the structure shown.

Columns and labels:
[1] = test system: Escherichia coli (CMCC44103); test: MIC, broth microdilution; conditions: CMCC44103, read-out: MIC, 5. E. coli (CMCC44103)
[2] = test system: Shigella dysenteriae (CMCC(B)51105); test: MIC, broth microdilution; assay type: cell-based; conditions: read-out: MIC, 9. S. dysenteriae (CMCC(B)51105)
[3] = test system: Klebsiella pneumoniae (CMCC46117); test: MIC, broth microdilution; conditions: CMCC46117, read-out: MIC, 6. K. pneumoniae (CMCC46117)
[4] = test system: mouse skin wound infected with drug-resistant E. coli (SYPB-3820); test: Mouse full-thickness skin wound infection and healing; assay type: in vivo, BALB/c mice
Procedure: (§1) Briefly, adult female BALB/c mice (18–22 g) were obtained from the Laboratory Animal Center of Shenyang Pharmaceutical University and performed in compliance with the guidelines of the Institutional Animal Care and Use Committee of Shenyang Pharmaceutical University. Each mouse was operated on an 8-mm in diameter round-shape wound under surgery conditions with an intraperitoneal injection of ketamine (90 mg/kg) and xylazine (10 mg/kg). The mice were randomly divided into 10 groups, including one normal group, three model groups, three treatment groups, and three positive groups (n = 10 in each group), then the wounds were infected with 40 μl (1 × 10^8 CFU/mL) of E. coli (CMCC44103) or drug-resistant E. coli (SYPB-3820) or S. aureus (CMCC26003), respectively, except for the normal group. Forty-eight hours later, the wounds of three model groups were treated with a sterile 0.85% saline solution. […] All the wounds were treated twice 1 day and observed every 24 h for 14 days. On days 1, 3, 5, 7, and 10, 100 mg of treated skin tissue was removed and homogenized in 0.9 ml of sterile 0.85% saline solution, then the samples were diluted and plated onto Luria-Bertani (LB) medium. After incubation at 37°C for 20 h, the CFUs were counted to represent the bacterial number in the wounds.

[5] = test system: mouse skin wound infected with E. coli (CMCC44103); test: as above; assay type: in vivo, BALB/c mice
Procedure: as §1

[6] = test system: mouse skin wound infected with S. aureus (CMCC26003); test: as above; assay type: in vivo, BALB/c mice
Procedure: as §1

[7] = test system: Acinetobacter baumannii (ACCC11038); test: MIC, broth microdilution; conditions: read-out: MIC, 8. A. baumannii (ACCC11038)
[8] = test system: Staphylococcus aureus (CMCC26003); test: MIC, broth microdilution; conditions: CMCC26003, read-out: MIC, 1. S. aureus (CMCC26003)
[9] = test system: Escherichia coli (SYPB-3820) (multiple-resistant strain); test: MIC, broth microdilution; conditions: read-out: MIC, 7. E. coli (SYPB-3820) (multiple-resistant strain)
[10] = test system: multiple-resistant Staphylococcus aureus (MRSA186); test: MIC, broth microdilution; conditions: read-out: MIC, 2. multiple-resistant S. aureus (MRSA186)
[11] = test system: genomic DNA of S. aureus (CMCC26003); test: Peptide and DNA binding assay (gel retardation); parameters: species or system Staphylococcus aureus; conditions: 0.5–8 × MIC (1–16 μg/ml), 37°C, 30 min, approx. 400 ng DNA
Procedure: (§2) The gel retardation experiment was conducted according to the method described by [Kim et al. (2018)] for exploring the influence of AMPs on the bacterial genome. The bacterial genomic DNAs were extracted by using a Vazyme FastPure® Bacteria DNA Isolation Mini Kit (Nanjing Vazyme Biotech Co., Ltd., Nanjing, China). […] DNA treated with Penetratin (reported as cell-penetrating peptide) ([de Mello et al., 2019]) and DNA untreated with AMP were served as positive and negative control, respectively. The extent of DNA migration was measured by agarose gel electrophoresis using a gel imaging system (Beijing Sage Creation Science, Beijing, China).

[12] = test system: genomic DNA of E. coli (CMCC44103); test: Peptide and DNA binding assay (gel retardation); parameters: species or system Escherichia coli; conditions: 0.5–8 × MIC (1–16 μg/ml), 37°C, 30 min, approx. 400 ng DNA
Procedure: as §2

[13] = test system: genomic DNA of E. coli (SYPB-3820); test: Peptide and DNA binding assay (gel retardation); parameters: species or system Escherichia coli; conditions: 0.5–8 × MIC (1–16 μg/ml), 37°C, 30 min, approx. 400 ng DNA
Procedure: as §2

C[C@H]1COc2c(N3CCN(C)CC3)c(F)cc3c(=O)c(C(=O)O)cn1c23 [Levofloxacin]
MIC [1]: 0.03 µg/mL (≈ 0.083 µM)
MIC [2]: 0.06 µg/mL (≈ 0.166 µM)
MIC [3]: 0.03 µg/mL (≈ 0.083 µM)
Skin wound bacterial burden ([4]; 10 days later, E. coli (SYPB-3820) infected wound, topical 100 μl at 8 × MIC twice a day, mean ± SD): (2.29 ± 3.78) × 10^4 CFU/g
Reduction of bacterial counts ([4]; day 10 vs initial burden, E. coli (SYPB-3820)): five
Wound healing (observation) ([4]; day 14, E. coli (SYPB-3820) infected wound): basically completely healed
Skin wound bacterial burden ([5]; day 10, E. coli (CMCC44103) infected wound, topical 100 μl at 8 × MIC twice a day, mean ± SD): (3.91 ± 2.87) × 10^3 CFU/g
Decrease of bacterial load ([5]; day 10 vs initial burden, E. coli (CMCC44103)): six
Wound healing (observation) ([5]; day 14, E. coli (CMCC44103) infected wound): basically completely healed
Skin wound bacterial burden ([6]; day 10, S. aureus (CMCC26003) infected wound, topical 100 μl at 8 × MIC twice a day, mean ± SD): (5.37 ± 2.89) × 10^3 CFU/g
Reduction of bacterial burden ([6]; day 10 vs initial burden, S. aureus (CMCC26003)): seven
Wound healing (observation) ([6]; day 14, S. aureus (CMCC26003) infected wound): basically completely healed
MIC [7]: 0.06 µg/mL (≈ 0.166 µM)
MIC [8]: 0.12 µg/mL (≈ 0.332 µM)
MIC [9]: 8 µg/mL (≈ 22.1 µM)

CN[C@H](CC(C)C)C(=O)N[C@H]1C(=O)N[C@@H](CC(N)=O)C(=O)N[C@H]2C(=O)N[C@H]3C(=O)N[C@H](C(=O)N[C@H](C(=O)O)c4cc(O)cc(O)c4-c4cc3ccc4O)[C@H](O)c3ccc(c(Cl)c3)Oc3cc2cc(c3O[C@@H]2O[C@H](CO)[C@@H](O)[C@H](O)[C@H]2O[C@H]2C[C@](C)(N)[C@H](O)[C@H](C)O2)Oc2ccc(cc2Cl)[C@H]1O [Vancomycin]
MIC [10]: 1 µg/mL (≈ 0.69 µM)

Penetratin
Binding to genomic DNA (gel retardation) [11]: bound with the bacterial genomic DNA and blocked the migration
Binding to genomic DNA (gel retardation) [12]: bound with the bacterial genomic DNA and blocked the migration
Binding to genomic DNA (gel retardation) [13]: bound with the bacterial genomic DNA and blocked the migration
